According to patent US8440654B2, “Thieno- and furo-pyrimidine modulators of the histamine H4 receptor” (Janssen Pharmaceutica NV, priority 2007, dated 2013):
Counter-ions that a name gives are not always drawn.

Biological target: T1, human histamine H4 receptor (Homo sapiens, UniProt Q9H3N8)
T1 construct: expressed in transfected cells; host or cells: SK-N-MC cells or COS7 cells, transiently transfected with pH4R; membrane preparation
Assay: Binding Assay on Recombinant Human Histamine H4 Receptor
Conditions: competition binding with 3H-histamine, membranes of SK-N-MC or COS7 cells transfected with human H4R; average of results obtained
Description: Biological Methods: Binding Assay on Recombinant Human Histamine H4 Receptor.
SK-N-MC cells or COS7 cells were transiently transfected with pH4R and grown in 150 cm^2 tissue culture dishes. Cells were washed with saline solution, scraped with a cell scraper and collected by centrifugation (1000 rpm, 5 min). Cell membranes were prepared by homogenization of the cell pellet in 20 mM Tris-HCl with a polytron tissue homogenizer for 10 sec at high speed. Homogenate was centrifuged at 1000 rpm for 5 min at 4° C. The supernatant was then collected and centrifuged at 20,000×g for 25 min at 4° C. The final pellet was resuspended in 50 mM Tris-HCl. Cell membranes were incubated with ^3H-histamine (5-70 nM) in the presence or absence of excess histamine (10,000 nM). Incubation occurred at room temperature for 45 min. Membranes were harvested by rapid filtration over Whatman GF/C filters and washed 4 times with ice-cold 50 mM Tris HCl. Filters were then dried, mixed with scintillant and counted for radioactivity. SK-N-MC or COS7 cells expressing human histamine H4 receptor were used to measure the affinity of binding of other compounds and their ability to displace ^3H-ligand binding by incubating the above-described reaction in the presence of various concentrations of inhibitor or compound to be tested. For competition binding studies using ^3H-histamine, K values were calculated, based on an experimentally determined KD value of 5 nM and a ligand concentration of 5 nM, according to Y.-C.

Row | Compound | Ki
1 | CN(CCN)c1nc(N)nc2c3c(oc12)CCC(F)(F)C3 [Example 125, N^4-(2-Aminoethyl)-8,8-difluoro-N^4-methyl-6,7,8,9-tetrahydro[1]benzofuro[3,2-d]pyrimidine-2,4-diamine (free amine)] | 150 nM
2 | Nc1nc(N2CC(N)C2)c2oc3c(c2n1)CC(F)(F)CC3 [Example 127, 4-(3-Aminoazetidin-1-yl)-8,8-difluoro-6,7,8,9-tetrahydro[1]benzofuro[3,2-d]pyrimidin-2-amine hydrochloride] | 64 nM
3 | NCCNc1nc(N)nc2c3c(sc12)CCC(F)(F)C3 [Example 128, N^4-(2-Aminoethyl)-8,8-difluoro-6,7,8,9-tetrahydro[1]benzothieno[3,2-d]pyrimidine-2,4-diamine hydrochloride] | 150 nM
4 | Nc1nc(N2C[C@H]3CNC[C@H]3C2)c2sc3c(c2n1)CC(F)(F)CC3 [Example 129, 8,8-Difluoro-4-[(3aR,6aS)-hexahydropyrrolo[3,4-c]pyrrol-2(1H)-yl]-6,7,8,9-tetrahydro[1]benzothieno[3,2-d]pyrimidin-2-amine (free amine)] | 680 nM
5 | CN(CCN)c1nc(N)nc2c3c(sc12)CCC(C)(C)C3 [Example 133, N^4-(2-Aminoethyl)-N^4,8,8-trimethyl-6,7,8,9-tetrahydro[1]benzothieno[3,2-d]pyrimidine-2,4-diamine trifluoroacetate] | 54 nM
6 | (3R)-N-Methyl-1-(6,7,8,9- tetrahydro[1]benzo- thieno[3,2-d]pyrimidin-4- yl)pyrrolidin-3-amine [Example 30] | 145 nM

The next compounds have a lower Ki than those just listed; values first:

Row | Ki | Compound
7 | 6.1 nM | Nc1nc(N2CC[C@H](N)C2)c2oc3c(c2n1)CC(F)(F)CC3 [Example 126, 4-[(3S)-3-Aminopyrrolidin-1-yl]-8,8-difluoro-6,7,8,9-tetrahydro[1]benzofuro[3,2-d]pyrimidin-2-amine hydrochloride]
8 | 8.2 nM | Nc1nc(N2CCCNCC2)c2oc3c(c2n1)CC(F)(F)CC3 [Example 130, 4-(1,4-Diazepan-1-yl)-8,8-difluoro-6,7,8,9-tetrahydro[1]benzofuro[3,2-d]pyrimidin-2-amine (free amine)]
9 | 35 nM | CC1(C)CCc2sc3c(N4CCCNCC4)nc(N)nc3c2C1 [Example 132, 4-(1,4-Diazepan-1-yl)-8,8-dimethyl-6,7,8,9-tetrahydro[1]benzothieno[3,2-d]pyrimidin-2-amine trifluoroacetate]
10 | 7.6 nM | CN[C@@H]1CCN(c2nc(N)nc3c4c(sc23)CCC(C)(C)C4)C1 [Example 134, 8,8-Dimethyl-4-[(3R)-3-(methylamino)pyrrolidin-1-yl]-6,7,8,9-tetrahydro[1]benzothieno[3,2-d]pyrimidin-2-amine hydrochloride]
11 | 35 nM | CN[C@H]1CCN(c2nc(N)nc3c4c(sc23)CCC(C)(C)C4)C1 [Example 135, 8,8-Dimethyl-4-[(3S)-3-(methylamino)pyrrolidin-1-yl]-6,7,8,9-tetrahydro[1]benzothieno[3,2-d]pyrimidin-2-amine hydrochloride]
12 | 7.7 nM | CC1(C)CCc2sc3c(N4CC[C@@H](N)C4)nc(N)nc3c2C1 [Example 136, 4-[(3R)-3-Aminopyrrolidin-1-yl]-8,8-dimethyl-6,7,8,9-tetrahydro[1]benzothieno[3,2-d]pyrimidin-2-amine hydrochloride]
13 | 18 nM | CN[C@@H]1CCN(c2nc(N)nc3c4c(oc23)CCC(C)(C)C4)C1 [Example 137, 8,8-Dimethyl-4-[(3R)-3-(methylamino)pyrrolidin-1-yl]-6,7,8,9-tetrahydro[1]benzofuro[3,2-d]pyrimidin-2-amine hydrochloride]
